System: NDM-1 Kp
Assay: LD90 NDM-1 Kp pneumonia murine model, survival
Format: in vivo, Balb/c mice
Conditions: colistin 20 or 1.25 mg/kg/day, days 4 and 5 PI
Description: To establish the optimal CST route, timing, and dosage regimen against MDR NDM-1 Kp-induced pneumonia, Balb/c mice (n=10-20 mice/gp) were infected with an i.n. LD90 and treated at various times and doses as depicted in Table 1. Doses included i.n. and/or i.p. single rCST9, rCSTC or a combination of rCST9 and rCSTC. Mice that were infected with NDM-1 Kp but were not treated served as controls. rCST treatments by routes, doses, or as a combined therapy were studied to select an optimal regimen.
Evaluate optimal timing and dosage of rCST-9 and/or PEG-rCST9 administration post-infection. Balb/c mice (n=10-20 mice/gp) were intranasally (i.n.) infected with approximately 1.82×10^8 CFU/mouse of Kp 2146 (as established hereinabove) then treated i.n. or i.p. with rCST9, human recombinant cystatin C (rCSTC) or a combination of rCST9 and rCSTC as depicted in Table 1. Kp infected alone served as controls. […] Therefore, as a comparative control to rCST9, the inventors evaluated the effectiveness of rCSTC against pneumonia using the same doses of 50 and/or 500 pg/mouse.
The potential for rCST9/rCSTC treatment to extend the period before successful antibiotic intervention was initiated was determined. For these evaluations, suboptimal doses of colistin were used to determine the extent of protection afforded by rCSTs as well as to minimize side effects/toxicity caused by this antibiotic (n=10 mice/gp). Doses, timing, and route of colistin were chosen based on efficacy studies of colistin in a mouse model of severe, established MDR pneumonia or a very low dose of colistin then adjusted to suboptimal levels for this study. LD90 NDM-1 Kp-challenged mice were treated with the rCST9/rCSTC 3 d i.p. treatment and then given 2 doses of colistin at 20 mg/kg/day or 1.25 mg/kg/day on day 4 and 5 PI.
Mouse model of pneumonia and CST treatments. Eight-week old female Balb/c mice weighing between 21 and 24 grams (Jackson Laboratories) were housed in an Association for Assessment and Accreditation for Laboratory Animal Care (AAALAC)-approved housing facility and permitted to adjust to their environment for 7 d prior to procedures, receiving free access to food and water throughout the study. All procedures were approved by the University of Texas Medical Branch IACUC and performed humanely with minimal suffering. […] One hour PI, mice were administered an i.n. dose of rCST9/rCSTC (50 pg of each) and then, this group of mice was given an i.p. injection of rCST9/rCSTC (500 pg of each) 3 d PI. A parallel group of infected mice received only a single i.p. dose of rCST9/rCSTC, PEG-rCST9/rCSTC (500 pg of each), or PEG-rCST9 (500 pg) alone 3 d PI. NDM-1-Kp infected mice alone or uninfected mice served as controls. Survival was observed up to 15 days post treatment. Additional groups (n=4 mice/group) of infected and CST-treated mice were euthanized at selected time points (24 h, 72 h, 5 and/or 10 d PI) to harvest lungs. Additional groups were treated with i.n. rCSTs (50 pg of each) as described above but they were euthanized at 30 min, 1 h and 3 h to collect lungs for the quantification of lipid peroxidase by-product, known as malondialdehyde (MDA), as described below.
Additional groups of mice (n=15 mice/group) were treated with the optimal CST treatment regimens of an i.n. dose of rCST9/rCSTC (50 pg of each), followed by an i.p. injection of rCST9/rCSTC (500 pg of each) 3 d PI or the single i.p. dose of rCST9/rCSTC (500 pg of each). At 4 d PI, mice were given 2 separate i.p. injections of colistin (JHP Pharmaceuticals, LLC; colistimethate sodium; 20 mg/kg/mouse or 1.25 mg/kg/day) 8 h apart for 2 d.

How did the “survival protection compared to rCST monotherapy” value turn out when colistin [reference compound] was run?
Its value is “neither of the antibiotic doses surpassed protection afforded by the rCST monotherapy”.

Reference: US12053511B2, “Cystatin C and Cystatin 9 to treat gut inflammation caused by thermal injury” (priority 2016, dated 2024)
